# Laboratory results as given in patent US6303366A, “Biodegradation of the gasoline oxygenates” (Envirogen, Inc., priority 1999, dated 2001).
# Key:
# strain ENV425 [1] = assay: Growth studies on MTBE pathway intermediates; assay type: cell-based, Nocardia
# M. vaccae JOB5 [2] = assay: Gas chromatography degradation assay, washed cells; assay type: cell-based, Mycobacterium vaccae; conditions: for % Degraded: 30 mg/l, 24 hours, OD550 1.0
# Procedure: (§1) Propane-oxidizing microorganisms were grown as described above on either propane, isopropanol, ethanol or acetone, to a cell density of OD550≥0.5. The cells were then collected by centrifugation, washed with BSM, and suspended to an OD550 of 1.0. […] The vials were sealed with Teflon-lined septa and crimp seals and incubated with shaking (250 rpm) at 30° C. for at least 24 hr. Control samples were prepared by adding 50 μl of 10 mM HgCl2 to replicate vials. HgCl2 killed the microorganisms present in the vials allowing these vials to serve as controls. At pre-determined time points, 50 μl of 10 mM HgCl2 were added to the incubating sample to stop the reaction or a sub-sample of the incubating sample was removed for analysis. Degradation of MTBE, ETBE or tert-butyl alcohol (TBA) was measured by gas chromatography.
# (§2) Gas chromatography was performed by first removing cells from the samples by centrifugation of the sample vial or the sub-sample. A pre-sealed 2-ml autosampler vial was partially evacuated by inserting a syringe needle through the septa and removing 500 μl of air. Five hundred μl of the clear supernatant fraction of the cell culture were then injected into the vial. The samples were then analyzed by injecting 1 μl of the sample directly into a Varians Model 3400 gas chromatograph equipped with a 30 m Vocol capillary column (Supelco) and a flame ionization detector. The column, injector, and detector were maintained isocratically at 80° C., 200° C., and 225° C., respectively. Standard curves of each compound were generated with aqueous standards of 10 ppm, 25 ppm, 50 ppm, and 100 ppm.
# ENV420 = assay: Gas chromatography degradation assay, washed cells; assay type: cell-based; conditions: 30 mg/l, 24 hours, OD550 1.0
# Procedure: as §1, §2
# ENV425 [3] = assay: Gas chromatography degradation assay, washed cells; assay type: cell-based, Nocardia; conditions: 30 mg/l, 24 hours, OD550 1.0
# Procedure: as §1, §2
# M. vaccae JOB5 [4] = assay: [^14 C]MTBE assay; assay type: cell-based, Mycobacterium vaccae; conditions: propane-grown, OD550 1.0, overnight, 0.5 μCi [^14 C]MTBE (2 μM MTBE)
# ENV425 [5] = assay: [^14 C]MTBE assay; assay type: cell-based, Nocardia
# [6] = test system: TXR mixed culture of naturally-occurring propane-oxidizing bacteria; assay: [^14 C]MTBE assay; assay type: cell-based; conditions: propane-grown, OD550 1.0, overnight, 0.5 μCi [^14 C]MTBE (2 μM MTBE)
# ENV425 [7] = assay: Degradation of tetrahydrofuran; assay type: cell-based, Nocardia; conditions: propane-grown; OD550 2.0; 40 mg/L; 48 hours; room temperature
# Procedure: (§3) To test the ability of propane oxidizing bacteria to degrade other environmentally-significant ether pollutants, ENV425 and a mixed culture of propane oxidizing bacteria from a laboratory bioreactor were incubated with tetrahydrofuran, and the degradation of tetrahydrofuran was measured after 48 hours. Cells of ENV425 and a mixed bioreactor culture of propane-oxidizing bacteria (termed "TXR") were grown in BSM medium with propane as the sole source of carbon and energy, collected by centrifugation, washed with BSM, and suspended in BSM to an optical density at 550 nm of 2.0. Five ml of the cell suspensions were added to 15 mL serum vials, and the vials were sealed with Teflon-lined septa and crimp tops. Vials containing BSM but no cells served as controls. Tetrahydrofuran was injected through the septa to create a final liquid concentration of 40 mg/L. The vials were then incubated at room temperature for 48 hours and analyzed by gas chromatography of subsamples of the vial headspace gas. Gas chromatography was performed as described for MTBE analysis.
# [8] = test system: mixed culture of propane-oxidizing bacteria (TXR); assay: Degradation of tetrahydrofuran; assay type: cell-based; conditions: propane-grown; OD550 2.0; 40 mg/L; 48 hours; room temperature
# Procedure: as §3
# strain ENV425 [9] = assay: Laboratory-scale membrane bioreactor degradation of MTBE; design: species or system Nocardia
# Procedure: The BSM feed rate was 1.7 ml/min. to create a hydraulic residence time in the reactor of 2.5 days. The effluent of the reactor passed over the surface of a 100,000 mwt ultra filtration membrane (Model CR250; Raisio Flootek, Molmo, Sweden), at a flow rate of 1.2 to 2.2 ml/min at a pressure of from 1 to 1.5 psi. The retenate containing cells were passed back into the reactor, and the filtrate was discarded as the treated effluent. The reactor was operated at 30° C. at a pH of 7. […] Oxygen concentration within the reactor was monitored by using an Ingold […] and a Cole Palmer model 01971-00 oxygen monitor, and oxygen concentration was maintained at >1% air saturation by adding air or oxygen directly to the reactor.
# ENV425 [10] = assay: Field-scale membrane bioreactor treating MTBE-contaminated groundwater; design: species or system Nocardia; conditions: for % Removed: continuous operation
# Description: Propane oxidizing bacteria were deployed in a field-scale membrane bioreactor (MBR) system to treat MTBE-contaminated groundwater at an oil refinery. An MBR is a type of suspended growth reactor.
# The MBR system used in the present example consisted of a 1000-gallon tank equipped with a variable speed mixer, an air diffuser capable of providing up to 600 ft^3 of air per hour, an automated pH controller, and nutrient and caustic feed systems. Soda ash was used to control pH, and a soluble fertilizer, in this case fish oil emulsion, was used as a nutrient. (Other types of soluble agricultural fertilizer can be used to supply nutrients.) The weight ratio of the nutrient comprised approximately 100 parts carbon:10 parts nitrogen:1 part phosphate. The fertilizer was added continuously to the influent contaminant stream by using a LMI model A771-152S chemical metering pump. The liquid level in the reactor was controlled by using two Dwyer model 603-A level transmitters set to maintain a reactor liquid volume of from 700 to 900 gallons.
# The pH was monitored and controlled by using a Rosemount model 1055APH pH analyzer/controller and a Rosemount model 385-2-8-54 pH sensor that measured pH in the reactor. Caustic was added to the influent feed line by using an LMI model A771-152S chemical metering pump. Effluent from the reactor was passed over dual ultrafiltration membranes (Rhone Poulenc model SC37/KO9; 17.22 ft^2 of membrane surface) connected in series, then into a proof tank and then a holding tank prior to discharge into the plant's sewer system.
# Operation of the reactor system was initiated by adding 225 gallons of water to the reactor and then adding concentrated BSM solution (see above) to the reactor to create a liquid concentration of 1×BSM. Twenty liters of frozen propane-grown ENV425 that had been grown in a laboratory fermentor in BSM medium with propane as a sole source of carbon and energy was frozen prior to shipment, then thawed and added directly to the water in the reactor. […] After addition to the reactor, the ENV425 was mixed well until dispersed. Then, 1.1 L of isopropanol were added while the reactor was mixing. The reactor was operated for 1.5 days until the culture became turbid. The reactor volume was then increased to 800 gallons, additional BSM was added to a final concentration of 1×BSM and an additional 3.8 L of isopropanol were added.
# This initial operation was termed the "batch phase" and was used to ensure equilibration of the reactor prior to initiating continuous feed operation.
# Reactor effluent was passed over the ultrafiltration membranes and retenate, containing the propane-oxidizing bacteria, was returned to the reactor. Filtrate was passed to the proof tank, and a portion of the filtrate was pumped back into the reactor to maintain an appropriate liquid volume. This was done because the flux through the membrane (40 gal./day/ft^2 of membrane) was greater than the feed rate to the reactor. Some of the return liquid passed through a spray nozzle at the top of the reactor to control reactor foaming. […] Additionally, periodic samples of the reactor headspace were sampled to estimate MTBE stripping in the reactor.
# Isopropanol was used to rapidly increase biomass in the reactor and to maintain high levels of activity by the propane-oxidizing bacteria.
# [11] = rat model studies; oral; cited from earlier work
# [12] = test system: anaerobic sediment samples; conditions: the one active sample; more than 152 days of incubation; cited from earlier work
# Acetobacterium woodii = conditions: anaerobic; cited from earlier work
# Eubacterium limosum = conditions: anaerobic; cited from earlier work
smiles,measurement,setting,value
CC(C)O [2-propanol],growth of strain ENV425 on the substance,strain ENV425 [1],does occur
CC(=O)CO [hydroxyacetone],growth of strain ENV425 on the substance,strain ENV425 [1],does occur
"CC(O)(CO)C(=O)O (stereo not drawn) [2,3-dihydroxy-2-methyl propionic acid]",growth of strain ENV425 on the substance,strain ENV425 [1],grows on
"CC(C)(C)O [TBA, tertiary-butyl alcohol]",% Degraded,M. vaccae JOB5 [2]; grown on isopropanol,11%
same,% Degraded,M. vaccae JOB5 [2]; grown on propane,45%
same,degraded % of the added TBA,"M. vaccae JOB5 [2]; propane-grown, within 24 hr",100%
same,% Degraded,ENV420; grown on ethanol,56%
same,% Degraded,ENV420; grown on propane,10%
same,% Degraded,ENV425 [3]; grown on isopropanol,0%
same,% Degraded,ENV425 [3]; grown on propane,23%
CC(=O)O [acetic acid],growth of strain ENV425 on the substance,strain ENV425 [1],does occur
CC(O)C(=O)O (stereo not drawn) [lactic acid],growth of strain ENV425 on the substance,strain ENV425 [1],grows on
[14CH3]O[14C]([14CH3])([14CH3])[14CH3] [[^14 C]MTBE],Percent of added [^14 C] in particulate fraction,M. vaccae JOB5 [4],0%
same,Percent of added [^14 C] in CO2 fraction,M. vaccae JOB5 [4]; mean (SD) of three,27(2) Percent
same,Percent of added [^14 C] in liquid fraction,M. vaccae JOB5 [4]; mean (SD) of three,71(2) Percent
same,added [^14 C]MTBE converted to ^14 CO2,ENV425 [5]; env425,> 65%
same,Percent of added [^14 C] in CO2 fraction,"ENV425 [5]; propane-grown, OD550 5.0, overnight, 0.5 μCi [^14 C]MTBE (2 μM MTBE)",41%
same,Percent of added [^14 C] in particulate fraction,[6],0%
same,Percent of added [^14 C] in CO2 fraction,[6]; mean (SD) of three,53(1) Percent
same,Percent of added [^14 C] in liquid fraction,[6]; mean (SD) of three,46(1.5) Percent
C1CCOC1 [tetrahydrofuran],tetrahydrofuran degraded,ENV425 [7],100%
same,tetrahydrofuran degraded,[8],100%
"CCOC(C)(C)C [ETBE, ethyl-tert-butyl ether]",% Degraded,M. vaccae JOB5 [2]; grown on isopropanol,80%
same,% Degraded,M. vaccae JOB5 [2]; grown on propane,100%
same,% Degraded,ENV420; grown on ethanol,31%
same,% Degraded,ENV420; grown on propane,0%
same,% Degraded,ENV425 [3]; grown on isopropanol,14%
same,% Degraded,ENV425 [3]; grown on propane,26%
"COC(C)(C)C [MTBE, methyl-tert-butyl ether]",% Degraded,M. vaccae JOB5 [2]; grown on isopropanol,93%
same,% Degraded,M. vaccae JOB5 [2]; grown on propane,100%
same,degraded % of the added MTBE,"M. vaccae JOB5 [2]; propane-grown, 518 μM (46 ppm) MTBE, within 24 hr",100%
same,% Degraded,ENV420; grown on ethanol,86%
same,% Degraded,ENV420; grown on propane,50%
same,% Degraded,ENV425 [3]; grown on isopropanol,71%
same,% Degraded,ENV425 [3]; grown on propane,67%
same,MTBE added to the reactor removed,strain ENV425 [9]; 2.5 day hydraulic retention time,Greater than 95%
same,"MTBE stripping from the reactor, of the influent MTBE mass",strain ENV425 [9]; typically,< 5%
same,MTBE Loss % (volatilization),ENV425 [10]; 3/7,9.6%
same,MTBE Loss % (volatilization),ENV425 [10]; 3/25,0.9%
same,MTBE Loss % (volatilization),ENV425 [10]; 4/1,6.8%
same,MTBE Loss % (volatilization),ENV425 [10]; 4/8,4.6%
same,MTBE Loss % (volatilization),ENV425 [10]; 4/15,2.1%
same,MTBE Loss % (volatilization),ENV425 [10]; Averages,4.5%
same,% Removed,"ENV425 [10]; 1/29, T-101 MTBE 100 mg/l",96.4%
same,% Removed,"ENV425 [10]; 2/2, T-101 MTBE 250 mg/l",97.9%
same,% Removed,"ENV425 [10]; 2/12, T-101 MTBE 240 mg/l",91.7%
same,% Removed,"ENV425 [10]; 2/16, T-101 MTBE 200 mg/l",95.3%
same,% Removed,"ENV425 [10]; 2/19, T-101 MTBE 280 mg/l",96.1%
same,% Removed,"ENV425 [10]; 2/26, T-101 MTBE 410 mg/l",99.6%
same,% Removed,"ENV425 [10]; 3/1, T-101 MTBE 780 mg/l",96.9%
same,% Removed,"ENV425 [10]; 3/4, T-101 MTBE 680 mg/l",96.5%
same,% Removed,"ENV425 [10]; 3/7, T-101 MTBE 770 mg/l",96.1%
same,% Removed,"ENV425 [10]; 3/11, T-101 MTBE 2000 mg/l",97.0%
same,% Removed,"ENV425 [10]; 3/14, T-101 MTBE 1100 mg/l",92.0%
same,% Removed,"ENV425 [10]; 3/18, T-101 MTBE 1900 mg/l",99.5%
same,% Removed,"ENV425 [10]; 3/21, T-101 MTBE 1600 mg/l",92.5%
same,% Removed,"ENV425 [10]; 3/25, T-101 MTBE 1590 mg/l",97.0%
same,% Removed,"ENV425 [10]; 3/28, T-101 MTBE 2000 mg/l",95.4%
same,% Removed,"ENV425 [10]; 4/1, T-101 MTBE 2200 mg/l",96.8%
same,% Removed,"ENV425 [10]; 4/4, T-101 MTBE 2400 mg/l",98.0%
same,% Removed,"ENV425 [10]; 4/8, T-101 MTBE 1700 mg/l",94.6%
same,% Removed,"ENV425 [10]; Avg., T-101 MTBE 1083 mg/l",96.2%
same,"Loss of MTBE caused by stripping/volatilization, averaged",ENV425 [10]; during the demonstration,4.5%
same,influent MTBE degraded,"ENV425 [10]; field and laboratory testing, hydraulic retention time 2.5 to 3.3 days",> 90%
same,MTBE removal,"ENV425 [10]; throughout the demonstration, MTBE 40 mg/L to >2000 mg/L",Greater than 90%
same,no-observable-adverse-effect-level (NOAEL),[11],100 mg/kg/day
same,transformation of MTBE,[12],about 50%
same,degradation by resting cells,Acetobacterium woodii,not degraded
same,degradation by resting cells,Eubacterium limosum,not degraded
C=C(C)C(=O)O [methacrylic acid],growth of strain ENV425 on the substance,strain ENV425 [1],grows on
"CC(C)(O)C(=O)O [HIBA, 2-hydroxy isobutyric acid]",growth of strain ENV425 on the substance,strain ENV425 [1],does not grow well
CC(C)=O [acetone],growth of strain ENV425 on the substance,strain ENV425 [1],does occur
